Activity calls are given as the source filed them.
Columns and labels:
[1] = A549 cell cytotoxicity, dose response, cytotoxicity control, 24 h, CellTiter-Glo luminescence, cherry-picks (AID 1053115); type: functional, cell-based; conditions: A549, 24 h
Paired box protein Pax-8 = Paired box protein Pax-8 (Homo sapiens, UniProt Q06710); test: inhibitors of PAX8-driven TPO luciferase reporter, dose response, RMG-I cells, cherry-pick (AID 687027); type: functional, cell-based;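 note: luciferase reporter driven by Pax8 target thyroperoxidase promoter measured by SteadyGlo luminescence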
Chain of Paired box protein Pax-8 (Q06710 whole entry): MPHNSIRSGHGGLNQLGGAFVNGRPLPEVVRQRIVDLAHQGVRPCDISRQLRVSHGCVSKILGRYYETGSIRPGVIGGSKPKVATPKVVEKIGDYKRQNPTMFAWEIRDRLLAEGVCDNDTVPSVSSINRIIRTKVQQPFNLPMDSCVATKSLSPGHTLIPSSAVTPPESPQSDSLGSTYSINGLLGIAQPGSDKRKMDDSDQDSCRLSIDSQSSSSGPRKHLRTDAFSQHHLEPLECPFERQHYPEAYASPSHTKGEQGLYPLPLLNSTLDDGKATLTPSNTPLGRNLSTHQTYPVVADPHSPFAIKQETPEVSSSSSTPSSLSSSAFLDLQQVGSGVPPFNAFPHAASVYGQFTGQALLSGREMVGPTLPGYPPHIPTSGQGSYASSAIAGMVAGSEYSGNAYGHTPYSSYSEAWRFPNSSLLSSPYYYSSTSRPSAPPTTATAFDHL

[2] = HEK293T cytotoxicity, dose response, cytotoxicity control for miR-122 modulator project, cell-based, activator set, cherry-pick (AID 720690); type: functional;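 note: HEK293T human cells scored for general mammalian cytotoxicity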
[3] = cytotoxicity in OVCAR8 ovarian cancer cells, dose response, PAX8 project, cell-based, plate reader, dry powder samples (AID 743197); type: functional; conditions: OVCAR-8
[4] = A549 cell cytotoxicity, dose response, CellTiter-Glo luminescence, dry powder, set 17 (AID 1117284); type: functional, cell-based
[5] = NIH:OVCAR-3 ovarian cancer cell cytotoxicity, dose response, PAX8 inhibitor project, plate reader, dry powder samples (AID 743044); type: functional, cell-based
[6] = molecular target: T1, Histone-lysine N-methyltransferase NSD2 (Homo sapiens, UniProt O96028); type: biochemical
T1 sequence (O96028 whole entry): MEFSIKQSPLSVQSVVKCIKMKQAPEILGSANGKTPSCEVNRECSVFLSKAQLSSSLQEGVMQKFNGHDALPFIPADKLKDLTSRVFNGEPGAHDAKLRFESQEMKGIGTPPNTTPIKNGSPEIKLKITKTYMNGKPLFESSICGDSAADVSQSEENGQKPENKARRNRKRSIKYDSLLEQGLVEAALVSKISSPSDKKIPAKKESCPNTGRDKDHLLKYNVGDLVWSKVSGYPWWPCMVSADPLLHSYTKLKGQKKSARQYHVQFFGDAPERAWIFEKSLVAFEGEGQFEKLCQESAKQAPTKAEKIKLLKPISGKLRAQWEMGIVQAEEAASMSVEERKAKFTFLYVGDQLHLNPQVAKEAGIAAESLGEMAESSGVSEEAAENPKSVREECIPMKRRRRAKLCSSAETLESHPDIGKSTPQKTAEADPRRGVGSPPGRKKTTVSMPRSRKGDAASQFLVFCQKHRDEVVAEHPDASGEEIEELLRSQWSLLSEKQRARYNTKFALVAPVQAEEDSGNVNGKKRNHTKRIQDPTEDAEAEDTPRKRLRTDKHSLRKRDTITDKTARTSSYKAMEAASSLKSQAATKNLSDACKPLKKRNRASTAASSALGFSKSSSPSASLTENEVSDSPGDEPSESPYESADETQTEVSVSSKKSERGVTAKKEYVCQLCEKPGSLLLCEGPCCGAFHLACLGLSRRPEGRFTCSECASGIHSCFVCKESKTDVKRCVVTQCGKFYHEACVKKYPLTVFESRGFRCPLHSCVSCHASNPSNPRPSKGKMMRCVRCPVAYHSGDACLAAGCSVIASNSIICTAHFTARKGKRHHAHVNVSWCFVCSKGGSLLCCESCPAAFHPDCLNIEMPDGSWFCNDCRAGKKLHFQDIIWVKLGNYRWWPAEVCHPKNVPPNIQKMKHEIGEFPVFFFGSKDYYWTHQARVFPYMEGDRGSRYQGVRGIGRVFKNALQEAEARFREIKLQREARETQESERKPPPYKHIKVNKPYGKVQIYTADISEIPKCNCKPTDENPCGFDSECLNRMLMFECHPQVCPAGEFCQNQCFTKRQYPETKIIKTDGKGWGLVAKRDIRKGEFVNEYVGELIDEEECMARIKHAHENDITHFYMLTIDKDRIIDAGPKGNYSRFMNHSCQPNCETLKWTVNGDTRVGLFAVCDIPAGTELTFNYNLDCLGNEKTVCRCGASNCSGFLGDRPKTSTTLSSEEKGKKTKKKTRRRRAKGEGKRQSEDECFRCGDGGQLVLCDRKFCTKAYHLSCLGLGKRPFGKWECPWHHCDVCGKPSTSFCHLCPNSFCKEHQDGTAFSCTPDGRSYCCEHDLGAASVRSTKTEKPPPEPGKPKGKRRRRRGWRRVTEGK

[7] = molecular target: T2, Mannose-6-phosphate isomerase (Homo sapiens, UniProt P34949); test: inhibitors of human PMI, primary screen, biochemical, fluorescence intensity, coupled assay (AID 1209)
T2 sequence (P34949 whole entry): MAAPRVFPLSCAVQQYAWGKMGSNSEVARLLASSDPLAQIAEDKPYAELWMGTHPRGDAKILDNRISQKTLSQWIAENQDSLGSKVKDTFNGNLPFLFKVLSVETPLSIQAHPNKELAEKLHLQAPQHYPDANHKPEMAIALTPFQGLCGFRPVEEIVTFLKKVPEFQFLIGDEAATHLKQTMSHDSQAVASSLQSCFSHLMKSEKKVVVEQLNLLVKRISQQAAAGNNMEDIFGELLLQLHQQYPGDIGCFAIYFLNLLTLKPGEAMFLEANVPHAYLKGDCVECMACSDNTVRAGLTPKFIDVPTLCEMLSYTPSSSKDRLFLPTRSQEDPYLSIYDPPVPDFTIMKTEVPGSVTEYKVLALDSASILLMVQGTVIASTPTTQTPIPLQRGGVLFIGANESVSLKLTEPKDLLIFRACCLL

Caspase-6 = molecular target: T3, Caspase-6 (Homo sapiens, UniProt P55212); test: human caspase-6 inhibitors, dose response, biochemical, VEID-R110 fluorescence, cherry-pick (AID 720632)
T3 sequence (P55212 whole entry): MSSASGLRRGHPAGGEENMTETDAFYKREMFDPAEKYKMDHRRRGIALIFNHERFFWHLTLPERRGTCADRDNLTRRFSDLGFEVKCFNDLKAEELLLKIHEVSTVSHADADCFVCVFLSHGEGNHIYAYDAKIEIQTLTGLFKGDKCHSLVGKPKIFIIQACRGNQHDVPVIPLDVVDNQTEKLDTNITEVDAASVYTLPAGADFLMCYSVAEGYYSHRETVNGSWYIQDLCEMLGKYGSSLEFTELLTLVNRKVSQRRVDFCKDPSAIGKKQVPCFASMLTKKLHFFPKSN

[8] = C. albicans growth with fluconazole, confirmation, fluorescence, retest (AID 2467); type: functional, cell-based
Albumin = Albumin (Bos taurus, UniProt P02769); test: Counterscreen for inhibitors of T-cell receptor (TCR)-CD3 interaction: Fluorescence-based biochemical high throughput dose response assay to identify inhibitors of T-cell receptor (TCR)-CD3 interaction using a TAMRA-labeled BSA probe.; type: functional
Chain of Albumin (P02769 whole entry): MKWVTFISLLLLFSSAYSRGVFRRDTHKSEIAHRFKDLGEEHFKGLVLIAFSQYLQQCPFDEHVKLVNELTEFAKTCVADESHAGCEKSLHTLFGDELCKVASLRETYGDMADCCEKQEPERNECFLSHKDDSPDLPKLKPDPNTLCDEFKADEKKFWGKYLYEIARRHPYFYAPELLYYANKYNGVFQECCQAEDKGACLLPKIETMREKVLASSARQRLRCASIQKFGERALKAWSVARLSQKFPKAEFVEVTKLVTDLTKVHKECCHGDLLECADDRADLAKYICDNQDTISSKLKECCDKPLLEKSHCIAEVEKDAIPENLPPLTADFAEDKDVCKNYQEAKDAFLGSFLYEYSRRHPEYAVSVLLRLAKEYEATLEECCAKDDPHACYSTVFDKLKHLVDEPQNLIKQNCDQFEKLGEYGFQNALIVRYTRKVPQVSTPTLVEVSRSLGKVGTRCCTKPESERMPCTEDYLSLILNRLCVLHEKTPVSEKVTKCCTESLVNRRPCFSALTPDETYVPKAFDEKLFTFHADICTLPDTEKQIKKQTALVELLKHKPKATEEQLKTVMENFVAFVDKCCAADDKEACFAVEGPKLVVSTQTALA

Large T antigen = Large T antigen (Simian virus 40, UniProt P03070); type: functional, Betapolyomavirus macacae;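 note: Confirmatory-stage PubChem screen for compounds that inhibit SV40 T antigen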
Chain of Large T antigen (P03070 whole entry): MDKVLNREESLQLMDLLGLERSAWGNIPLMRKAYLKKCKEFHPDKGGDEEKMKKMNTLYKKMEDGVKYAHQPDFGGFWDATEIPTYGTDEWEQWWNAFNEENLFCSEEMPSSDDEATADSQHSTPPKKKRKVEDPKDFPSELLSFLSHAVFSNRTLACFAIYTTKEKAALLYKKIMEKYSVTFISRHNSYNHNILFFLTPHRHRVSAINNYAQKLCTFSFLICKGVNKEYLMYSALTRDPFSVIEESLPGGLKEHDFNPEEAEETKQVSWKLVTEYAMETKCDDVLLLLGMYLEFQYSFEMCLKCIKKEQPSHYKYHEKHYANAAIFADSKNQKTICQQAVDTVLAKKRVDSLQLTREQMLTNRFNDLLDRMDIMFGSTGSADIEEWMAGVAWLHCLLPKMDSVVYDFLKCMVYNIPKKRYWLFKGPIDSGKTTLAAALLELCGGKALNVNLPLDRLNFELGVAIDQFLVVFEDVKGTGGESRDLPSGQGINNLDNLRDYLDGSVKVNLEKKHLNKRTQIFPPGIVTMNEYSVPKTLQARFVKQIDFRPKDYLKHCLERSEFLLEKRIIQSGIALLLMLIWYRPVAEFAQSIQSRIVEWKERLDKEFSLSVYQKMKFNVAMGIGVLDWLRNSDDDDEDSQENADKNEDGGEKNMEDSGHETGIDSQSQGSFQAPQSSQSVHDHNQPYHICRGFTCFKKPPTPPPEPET

Aminopeptidase N = molecular target: T4, Aminopeptidase N (Plasmodium falciparum FcB1/Columbia, UniProt O96935); test: P. falciparum M1AAP inhibitors, biochemical, fluorogenic H-Leu-NHMec substrate, 1536-well (AID 1445); design: species or system Plasmodium falciparum 3D7, 3D7
T4 sequence (O96935 whole entry): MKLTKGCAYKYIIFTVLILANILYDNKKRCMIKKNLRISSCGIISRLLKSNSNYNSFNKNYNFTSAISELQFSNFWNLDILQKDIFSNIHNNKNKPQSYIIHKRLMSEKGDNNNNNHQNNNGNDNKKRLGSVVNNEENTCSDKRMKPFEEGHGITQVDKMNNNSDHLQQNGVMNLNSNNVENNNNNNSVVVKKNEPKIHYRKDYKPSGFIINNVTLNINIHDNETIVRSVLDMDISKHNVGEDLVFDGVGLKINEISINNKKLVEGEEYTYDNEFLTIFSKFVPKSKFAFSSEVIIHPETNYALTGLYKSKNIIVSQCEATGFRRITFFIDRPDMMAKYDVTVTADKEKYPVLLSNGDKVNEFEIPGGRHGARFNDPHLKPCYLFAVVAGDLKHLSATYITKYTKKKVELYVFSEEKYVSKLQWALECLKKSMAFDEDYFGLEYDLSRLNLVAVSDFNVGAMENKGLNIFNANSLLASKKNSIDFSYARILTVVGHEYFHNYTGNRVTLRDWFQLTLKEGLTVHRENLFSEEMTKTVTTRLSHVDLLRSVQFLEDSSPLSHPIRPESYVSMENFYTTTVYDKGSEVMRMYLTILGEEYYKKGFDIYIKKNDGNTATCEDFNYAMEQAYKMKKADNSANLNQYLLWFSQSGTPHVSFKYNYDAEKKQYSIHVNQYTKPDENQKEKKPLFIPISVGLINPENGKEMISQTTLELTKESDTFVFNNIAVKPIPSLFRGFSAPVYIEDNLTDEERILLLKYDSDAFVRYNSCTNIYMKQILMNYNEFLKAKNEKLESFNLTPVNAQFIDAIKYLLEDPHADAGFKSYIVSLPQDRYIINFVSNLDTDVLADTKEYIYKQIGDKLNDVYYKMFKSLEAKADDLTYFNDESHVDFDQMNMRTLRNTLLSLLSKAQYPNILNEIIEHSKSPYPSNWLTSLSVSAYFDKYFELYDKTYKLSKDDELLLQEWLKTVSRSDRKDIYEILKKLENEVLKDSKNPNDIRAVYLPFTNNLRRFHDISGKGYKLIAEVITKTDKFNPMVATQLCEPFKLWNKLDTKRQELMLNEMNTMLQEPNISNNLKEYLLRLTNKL

[9] = molecular target: E3 ubiquitin-protein ligase UHRF1 (Homo sapiens, UniProt Q96T88); test: Counterscreen for inhibitors of 5-meCpG-binding domain protein 2 (MBD2): TRFRET-based biochemical high throughput dose response assay to identify inhibitors of binding of ubiquitin-like with PHD and ring finger domains 1 (UHRF1) to methylated oligonucleotide.
Chain of E3 ubiquitin-protein ligase UHRF1 (Q96T88 whole entry, the tested form may be a part): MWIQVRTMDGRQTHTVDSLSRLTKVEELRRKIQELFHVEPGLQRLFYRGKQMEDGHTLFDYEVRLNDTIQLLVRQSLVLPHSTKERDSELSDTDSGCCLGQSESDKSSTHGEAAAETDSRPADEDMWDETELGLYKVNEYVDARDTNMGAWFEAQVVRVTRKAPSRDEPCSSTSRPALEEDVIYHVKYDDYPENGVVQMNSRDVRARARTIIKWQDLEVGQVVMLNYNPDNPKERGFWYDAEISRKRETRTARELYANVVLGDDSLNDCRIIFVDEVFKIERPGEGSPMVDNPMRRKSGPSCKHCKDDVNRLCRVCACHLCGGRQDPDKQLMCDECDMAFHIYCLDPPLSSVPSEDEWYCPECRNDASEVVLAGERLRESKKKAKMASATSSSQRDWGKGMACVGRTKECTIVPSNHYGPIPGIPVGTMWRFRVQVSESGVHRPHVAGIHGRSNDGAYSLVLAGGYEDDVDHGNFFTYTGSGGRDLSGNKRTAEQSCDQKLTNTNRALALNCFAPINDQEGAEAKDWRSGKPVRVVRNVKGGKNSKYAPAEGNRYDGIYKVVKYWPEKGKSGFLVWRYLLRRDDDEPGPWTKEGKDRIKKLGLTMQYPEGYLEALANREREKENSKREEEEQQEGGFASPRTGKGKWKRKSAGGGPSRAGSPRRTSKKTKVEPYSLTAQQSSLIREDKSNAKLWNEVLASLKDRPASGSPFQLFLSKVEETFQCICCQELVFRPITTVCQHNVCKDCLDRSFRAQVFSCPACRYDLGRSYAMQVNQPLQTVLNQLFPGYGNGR

[10] = NIH-3T3 fibroblast cytotoxicity, dose response, cytotoxicity control, cell-based, fluorescence, Alamar Blue, secondary assay (AID 2327); type: functional;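 note: NIH-3T3 mouse fibroblasts cultured with fluconazole at 8 µg/mL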
[11] = molecular target: Induced myeloid leukemia cell differentiation protein Mcl-1 (Homo sapiens, UniProt Q07820); type: functional
Chain of Induced myeloid leukemia cell differentiation protein Mcl-1 (Q07820 whole entry): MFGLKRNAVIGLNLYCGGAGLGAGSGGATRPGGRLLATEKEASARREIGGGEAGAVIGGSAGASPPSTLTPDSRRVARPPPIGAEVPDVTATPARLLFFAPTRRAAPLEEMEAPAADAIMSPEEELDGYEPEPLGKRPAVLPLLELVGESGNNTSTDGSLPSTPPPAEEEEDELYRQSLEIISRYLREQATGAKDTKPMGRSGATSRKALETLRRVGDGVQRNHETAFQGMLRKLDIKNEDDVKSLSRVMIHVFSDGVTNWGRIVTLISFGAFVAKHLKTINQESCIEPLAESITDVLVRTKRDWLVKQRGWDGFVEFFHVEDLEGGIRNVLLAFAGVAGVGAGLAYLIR

[12] = MITF Orthogonal Assay: MALME3 CTG Assay Measured in Cell-Based System Using Plate Reader - 2084-04_Inhibitor_Dose_DryPowder_Activity_Set6.; type: functional; conditions: MALME-3
[13] = TRPM1 promoter luciferase reporter signal decrease, dose response, MITF inhibitor project, cell-based, SK-MEL-5, dry powder, set 8 (AID 624430); type: functional
[14] = MALME3 melanoma cell viability reduction, dose response, orthogonal assay for MITF inhibitor project, CellTiter-Glo luminescence, dry powder, set 5 (AID 651584); type: functional, cell-based; conditions: MALME-3
[15] = A375 melanoma cell viability loss, dose response, counter-screen for MITF modulator project, CellTiter-Glo luminescence, dry powder, set 9 (AID 651591); type: functional, cell-based; conditions: A-375
[16] = SK-MEL-5 parental cell viability reduction, dose response, orthogonal assay for MITF inhibitor project, CellTiter-Glo luminescence, dry powder, set 8 (AID 651586); type: functional, cell-based
[17] = TRPM1 promoter luciferase reporter signal decrease, dose response, MITF inhibitor project, cell-based, SK-MEL-5, dry powder, set 9 (AID 651588); type: functional
[18] = MITF: Counter assay: A375 proliferation Measured in Cell-Based System Using Plate Reader - 2084-03_Inhibitor_Dose_DryPowder_Activity_Set8.; type: functional; conditions: A-375
[19] = MITF Orthogonal Assay: SK-MEL-5 CTG Assay Measured in Cell-Based System Using Plate Reader - 2084-02_Inhibitor_Dose_DryPowder_Activity_Set7.; type: functional

**Q.** With C[C@@H](O)C#Cc1ccc2c(c1)O[C@H](CN(C)Cc1ccc(-c3ccccc3)cc1)[C@@H](C)CN([C@@H](C)CO)S2(=O)=O as the compound, how does the AC50 [1] read?
**A.** 51.8 µM (active)

**Q.** What about the AC50 (Paired box protein Pax-8) of the same compound?
**A.** 4.84 µM (active)

**Q.** And the AC50 [2]?
**A.** 19.4 µM (active)

**Q.** And the AC50 [3]?
**A.** > 70 µM (inactive)

**Q.** What about the AC50 [4] of the same compound?
**A.** 28.6 µM (active)

**Q.** What about the AC50 [5] of the same compound?
**A.** 50.2 µM (active)

**Q.** For COc1ccc(/C=N/NC(=O)c2cc(O)c(O)c(O)c2)cc1Cn1cc([N+](=O)[O-])cn1, which AC50 [6] is on record?
**A.** 5.22 µM (active)

**Q.** And the IC50 [7]?
**A.** 12 µM (active)

**Q.** And the AC50 (Caspase-6)?
**A.** 0.873 µM (active)

**Q.** And the EC50 [8]?
**A.** 3.25 µM (active)

**Q.** And the IC50 (Albumin)?
**A.** > 94.1 µM (inactive)

**Q.** What about the IC50 (Large T antigen) of the same compound?
**A.** 0.99 µM (active)

**Q.** And the IC50 (Aminopeptidase N)?
**A.** 92.6 µM (active)

**Q.** And the IC50 [9]?
**A.** > 43.8 µM (inactive)

**Q.** And the EC50 [10]?
**A.** 30 µM (active)

**Q.** What about the IC50 [11] of the same compound?
**A.** 4.31 µM (active)

**Q.** With O=C1C(Nc2ccc(Br)cc2)=C(N2CCCCC2)C(=O)c2ccccc21 as the compound, how does the AC50 [12] read?
**A.** 15.7 µM (active)

**Q.** What about the AC50 [13] of the same compound?
**A.** 4.44 µM (active)

**Q.** And the AC50 [14]?
**A.** 15.7 µM (active)

**Q.** And the AC50 [15]?
**A.** 32.8 µM (active)

**Q.** What about the AC50 [16] of the same compound?
**A.** > 70 µM (inactive)

**Q.** And the AC50 [17]?
**A.** 15.3 µM (active)

**Q.** And the AC50 [18]?
**A.** 47.2 µM (active)

**Q.** And the AC50 [19]?
**A.** 4.57 µM (active)
